From PubChem BioAssay (NCI) come the findings set out here.

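Grown in 96-well plates, cells were treated for 48 hours with each compound at five concentrations. Insufficient inhibition: endpoint recorded as highest concentration tested. GI50 marks 50% less growth. TGI: total growth inhibition.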

Among the test systems are SF-539 CNS; CAKI-1 renal; SN12C renal; UACC-257 melanoma; NCI-H23 lung; SR leukemia; SK-OV-3 ovarian; DU-145 prostate.
Test in all cases: inhibition of tumour cell growth, NCI panel, 48 h

As for `Cn1cccc1-c1cc(-c2ccc(Br)cc2)nc(N)c1C#N`, the GI50 in the assay on SF-539 CNS is above 100 µM; in the assay on CAKI-1 renal, above 100 µM; in the assay on SN12C renal it was above 100 µM; in the assay with UACC-257 melanoma, above 100 µM; in the assay with NCI-H23 lung it was above 100 µM; with SR leukemia, 3.42 µM. The GI50 in the assay with SK-OV-3 ovarian and with DU-145 prostate was above 100 µM throughout. For the same compound, the TGI was above 100 µM in the assay on SF-539 CNS; above 100 µM in the assay with CAKI-1 renal; above 100 µM in the assay with SN12C renal; above 100 µM with UACC-257 melanoma; above 100 µM with NCI-H23 lung; 20.4 µM in the assay on SR leukemia. For the same compound, the TGI with SK-OV-3 ovarian and with DU-145 prostate was above 100 µM each time.

Turning to `COc1cc2c(/C=C3\C(=O)Nc4ccc(Br)cc43)c(Cl)n(C)c2cc1C`, the GI50 in the assay with SF-539 CNS was 1 µM; with CAKI-1 renal, 2.26 µM; in the assay on SN12C renal it was 3.05 µM; with UACC-257 melanoma it was 7.56 µM; in the assay on NCI-H23 lung, 2.78 µM; with SR leukemia, 1.42 µM. In addition, the GI50 in the assay on SK-OV-3 ovarian was 3.87 µM; in the assay on DU-145 prostate, 2.04 µM. Besides, the TGI in the assay with SF-539 CNS is 4.71 µM; in the assay with CAKI-1 renal, 7.3 µM; with SN12C renal it was 11.4 µM; in the assay with UACC-257 melanoma it was 31 µM; in the assay with NCI-H23 lung, 13 µM; in the assay with SK-OV-3 ovarian, 18.6 µM. For the same compound, the TGI in the assay on DU-145 prostate was found to be 4.36 µM.

With `Cc1cc(S(N)(=O)=O)c(S/C(=N\NS(=O)(=O)c2ccc(Cl)cc2)c2ccc(Cl)cc2)cc1Cl`, the GI50 was above 100 µM in the assay with SF-539 CNS; above 100 µM in the assay with CAKI-1 renal; above 100 µM in the assay on SN12C renal; above 100 µM in the assay with UACC-257 melanoma; 44.2 µM in the assay with NCI-H23 lung; 29.1 µM in the assay on SR leukemia. In addition, the GI50 in the assay with SK-OV-3 ovarian and in the assay on DU-145 prostate was above 100 µM in each case. The TGI in the assay with SF-539 CNS, in the assay with CAKI-1 renal, in the assay on SN12C renal, in the assay with UACC-257 melanoma, in the assay on NCI-H23 lung and in the assay with SR leukemia was above 100 µM each time. Moreover, the TGI with SK-OV-3 ovarian and with DU-145 prostate was above 100 µM in each case.

Turning to `COc1ccccc1Nc1nc(-c2cc3cccc(C(F)(F)F)c3oc2=O)cs1`, the GI50 was 0.043 µM in the assay on SF-539 CNS; 0.142 µM in the assay with CAKI-1 renal; 1.04 µM with SN12C renal; 1.71 µM in the assay with UACC-257 melanoma; 0.345 µM in the assay with NCI-H23 lung; 0.084 µM in the assay with SR leukemia. Further, the GI50 is 0.237 µM with SK-OV-3 ovarian and 0.263 µM with DU-145 prostate. In addition, the TGI in the assay with SF-539 CNS was 0.199 µM; in the assay with CAKI-1 renal it was above 100 µM; in the assay on SN12C renal it was above 100 µM; in the assay on UACC-257 melanoma it was above 100 µM; in the assay on NCI-H23 lung it was above 45.9 µM; in the assay with SR leukemia, above 100 µM. In the assay with SK-OV-3 ovarian, this compound registered a TGI above 93.9 µM.

Turning to `COC(=O)c1ccc2c(c1)nc(-c1ccc(Cl)cc1)n2-c1cc(C(C)(C)C)[nH]n1`, the GI50 was 2.54 µM in the assay on SF-539 CNS; 2.25 µM in the assay with CAKI-1 renal; 4.34 µM in the assay with SN12C renal; 4.97 µM in the assay on UACC-257 melanoma; 3.42 µM in the assay with NCI-H23 lung; 3.23 µM in the assay with SR leukemia. Besides, the GI50 with SK-OV-3 ovarian was 3.71 µM; with DU-145 prostate, 3.69 µM. In addition, the TGI was 8.95 µM in the assay with SF-539 CNS; 12.8 µM with CAKI-1 renal; 27.7 µM in the assay with SN12C renal; 22.9 µM in the assay on UACC-257 melanoma; 36 µM in the assay with NCI-H23 lung; above 100 µM in the assay on SR leukemia. Also, the figures for the TGI in the assay with SK-OV-3 ovarian and with DU-145 prostate were 31 µM and 25.1 µM, respectively.

For the compound `CC(O)CN(CCN(CC(C)O)CC(C)O)CC(C)O.O=[N+]([O-])O.[Cu+2]` (configuration not stated), the GI50 in the assay on SF-539 CNS, in the assay with CAKI-1 renal, in the assay on SN12C renal, in the assay on UACC-257 melanoma, in the assay on NCI-H23 lung and in the assay on SR leukemia was above 100 µM in each case. Also, the GI50 in the assay with SK-OV-3 ovarian and in the assay with DU-145 prostate was above 100 µM in each case. For the same compound, the TGI with SF-539 CNS, in the assay with CAKI-1 renal, with SN12C renal, in the assay on UACC-257 melanoma, in the assay with NCI-H23 lung and in the assay on SR leukemia was above 100 µM in each case. For the same compound, the TGI in the assay with SK-OV-3 ovarian and in the assay on DU-145 prostate was above 100 µM in each case.

Regarding `Cn1c2ccccc2c2c3c(c4c5ccccc5n(CCCCCC#N)c4c21)C(=O)N(O)C3=O`, the GI50 was 0.295 µM in the assay on SF-539 CNS; 1.37 µM with CAKI-1 renal; 0.453 µM in the assay with SN12C renal; 1.65 µM with UACC-257 melanoma; 1.18 µM with NCI-H23 lung; 0.333 µM in the assay on SR leukemia. In addition, the GI50 in the assay on SK-OV-3 ovarian is 0.596 µM; with DU-145 prostate, 0.381 µM. In addition, the TGI with SF-539 CNS is 1.1 µM; in the assay on CAKI-1 renal, 3.03 µM; in the assay with SN12C renal it was 20.9 µM; with UACC-257 melanoma, 5.22 µM; in the assay on NCI-H23 lung it was 9.91 µM; in the assay with SR leukemia, above 100 µM. In addition, the TGI in the assay on SK-OV-3 ovarian is 7.45 µM; in the assay on DU-145 prostate, above 100 µM.

Take `CCCCCCCCSC1=CC(=O)C(OC)=C(OC)C1=O`: the GI50 in the assay on SF-539 CNS was 2.54 µM; in the assay with CAKI-1 renal it was 6.11 µM; in the assay on SN12C renal, 5.21 µM; in the assay with UACC-257 melanoma, 1.67 µM; in the assay with NCI-H23 lung it was 3.36 µM; in the assay on SR leukemia, 2.27 µM. In addition, the values for the GI50 in the assay on SK-OV-3 ovarian and in the assay with DU-145 prostate were 17.6 µM and 7.23 µM, respectively. The TGI with SF-539 CNS is 5.9 µM; in the assay with CAKI-1 renal, 54.6 µM; in the assay with SN12C renal, 18.4 µM; in the assay with UACC-257 melanoma, 4.17 µM; with NCI-H23 lung, 16.2 µM; in the assay with SR leukemia, above 100 µM. Moreover, the TGI in the assay with SK-OV-3 ovarian is 36.4 µM; in the assay with DU-145 prostate it was 20.5 µM.

`O=Nc1c(-c2cccc([N+](=O)[O-])c2)nc2ncccn12`: the GI50 in the assay with SF-539 CNS was 15.8 µM; in the assay with CAKI-1 renal it was 10.4 µM; with SN12C renal, 16.4 µM; in the assay with UACC-257 melanoma, 12.3 µM; with NCI-H23 lung, 15.1 µM; in the assay on SR leukemia, 0.218 µM. The values for the GI50 with SK-OV-3 ovarian and in the assay with DU-145 prostate were 22.8 µM and 4.24 µM, respectively. Also, the TGI with SF-539 CNS was determined as 31 µM; in the assay with CAKI-1 renal it was 22.6 µM; with SN12C renal it was 42.3 µM; in the assay on UACC-257 melanoma it was 26.4 µM; in the assay on NCI-H23 lung, 34.9 µM; in the assay on SR leukemia, 2.22 µM. In addition, the results for the TGI in the assay with SK-OV-3 ovarian and with DU-145 prostate were 59.6 µM and 16.8 µM, respectively.
